{"source": "patent US7923438B2", "about": "(priority 2006, dated 2011)", "format_in_all_cases": "cell-based", "key": {"[1]": {"tested_on": "Mycobacterium smegmatis (FH 6498)", "assay": "Serial dilution test for MIC, Mueller-Hinton broth"}, "[2]": {"tested_on": "Corynebacterium diphtheriae (ATCC 27010)", "assay": "microbe, parasite or virus in culture"}, "[3]": {"tested_on": "Mycobacterium phlei (ATCC 1298)", "assay": "microbe, parasite or virus in culture"}, "[4]": {"tested_on": "Nocardia abscessus (BAA 279)", "assay": "microbe, parasite or virus in culture"}, "[5]": {"tested_on": "Nocardia brasiliensis (ATCC 19296)", "assay": "microbe, parasite or virus in culture"}, "[6]": {"tested_on": "S. aureus (control strain)", "assay": "Serial dilution test for MIC, Mueller-Hinton broth (control strain)"}, "[7]": {"settings": "serial dilution, 48 hours at 37° C., approximately 10 Ex 6 CFU/ml"}, "[8]": {"settings": "6.25 μg per disc (17 nmol per disc), 48 hrs at 37° C."}}, "note": "Like-named read-outs stand apart in the source and are kept apart here.", "data": [{"smiles": "CCCCCCCCCCCCCCCCOP1(=O)OC[C@H]2COC(=O)C2=C(C)O1", "note": "(stereo partly shown) [Cyclipostin P]", "values": [{"measurement": "minimum inhibitory concentration (MIC), Mycobacterium smegmatis (FH 6498)", "setting": "[1]", "value": "<0.5"}, {"measurement": "Inhibition zone size, Corynebacterium diphtheriae (ATCC 27010)", "setting": "[2]", "value": 10, "unit": "mm"}, {"measurement": "Inhibition zone size, Mycobacterium phlei (ATCC 1298)", "setting": "[3]", "value": 35, "unit": "mm"}, {"measurement": "Inhibition zone size, Nocardia abscessus (BAA 279)", "setting": "[4]", "value": 28, "unit": "mm"}, {"measurement": "Inhibition zone size, Nocardia brasiliensis (ATCC 19296)", "setting": "[5]", "value": 47, "unit": "mm"}, {"measurement": "minimum inhibitory concentration (MIC), S. aureus (control strain)", "setting": "[6]", "value": ">64"}]}, {"smiles": "CCCCCCCCCCCCCCCOP1(=O)OC[C@H]2COC(=O)C2=C(C)O1", "note": "(stereo partly shown) [Cyclipostin R]", "values": [{"measurement": "minimum inhibitory concentration (MIC), Mycobacterium smegmatis (FH 6498)", "setting": "[1]", "value": "<0.5"}, {"measurement": "minimum inhibitory concentration (MIC), S. aureus (control strain)", "setting": "[6]", "value": ">64"}]}, {"smiles": "CCCC1=C2C(=O)OC[C@@H]2COP(=O)(OCCCCCCCCCCCCCC(C)C)O1", "note": "(stereo partly shown) [Cyclipostin T2]", "values": [{"measurement": "minimum inhibitory concentration (MIC), Mycobacterium smegmatis (FH 6498)", "setting": "[1]", "value": "<0.5"}, {"measurement": "Inhibition zone size, Corynebacterium diphtheriae (ATCC 27010)", "setting": "[2]", "value": 20, "unit": "mm"}, {"measurement": "Inhibition zone size, Mycobacterium phlei (ATCC 1298)", "setting": "[3]", "value": 47, "unit": "mm"}, {"measurement": "Inhibition zone size, Nocardia abscessus (BAA 279)", "setting": "[4]", "value": 10, "unit": "mm"}, {"measurement": "Inhibition zone size, Nocardia brasiliensis (ATCC 19296)", "setting": "[5]", "value": 39, "unit": "mm"}, {"measurement": "minimum inhibitory concentration (MIC), S. aureus (control strain)", "setting": "[6]", "value": ">64"}]}, {"smiles": "CCCCCCCCCCCCCCCCOP1(=O)OCC2COC(=O)C2=C(CCC)O1", "note": "(stereo not shown) [Cyclipostin T]", "values": [{"measurement": "minimum inhibitory concentration (MIC), Mycobacterium smegmatis (FH 6498)", "setting": "[1]; [7]", "value": "<0.5"}, {"measurement": "zone of inhibition at 20 µg/disc", "setting": "[2]; Corynebacterium diphtheriae, ATCC27010, 20 μg per disc, 48 hrs at 37° C., read-out: Inhibition zone size, Corynebacterium diphtheriae (ATCC 27010)", "value": 12, "unit": "mm"}, {"measurement": "zone of inhibition at 20 µg/disc", "setting": "[3]; Mycolicibacterium phlei, ATCC1298, 20 μg per disc, 48 hrs at 37° C., read-out: Inhibition zone size, Mycobacterium phlei (ATCC 1298)", "value": 30, "unit": "mm"}, {"measurement": "zone of inhibition at 20 µg/disc", "setting": "[4]; Nocardia abscessus, BAA279, 20 μg per disc, 48 hrs at 37° C., read-out: Inhibition zone size, Nocardia abscessus (BAA 279)", "value": 9, "unit": "mm"}, {"measurement": "zone of inhibition at 20 µg/disc", "setting": "[5]; Nocardia brasiliensis, ATCC19296, 20 μg per disc, 48 hrs at 37° C., read-out: Inhibition zone size, Nocardia brasiliensis (ATCC 19296)", "value": 38, "unit": "mm"}, {"measurement": "minimum inhibitory concentration (MIC), S. aureus (control strain)", "setting": "[6]; [7]", "value": ">64"}]}, {"smiles": "CC1(C)S[C@@H]2[C@H](NC(=O)Cc3ccccc3)C(=O)N2[C@H]1C(=O)O", "note": "[Penicillin G, reference compound]", "values": [{"measurement": "Inhibition zone size, Corynebacterium diphtheriae (ATCC 27010)", "setting": "[2]; [8]", "value": 33, "unit": "mm"}, {"measurement": "Inhibition zone size, Mycobacterium phlei (ATCC 1298)", "setting": "[3]; [8]", "value": 0, "unit": "mm"}, {"measurement": "Inhibition zone size, Nocardia abscessus (BAA 279)", "setting": "[4]; [8]", "value": 16, "unit": "mm"}, {"measurement": "Inhibition zone size, Nocardia brasiliensis (ATCC 19296)", "setting": "[5]; [8]", "value": 0, "unit": "mm"}]}, {"smiles": "CO[C@H]1/C=C/O[C@@]2(C)Oc3c(C)c(O)c4c(O)c(c(/C=N/N5CCN(C)CC5)c(O)c4c3C2=O)NC(=O)/C(C)=C\\C=C\\[C@H](C)[C@H](O)[C@@H](C)[C@@H](O)[C@@H](C)[C@H](OC(C)=O)[C@@H]1C", "note": "[Rifampicin, reference compound]", "values": [{"measurement": "zone of inhibition at 30 µg/disc", "setting": "[2]; Corynebacterium diphtheriae, ATCC27010, 30 μg per disc (36 nmol per disc), 48 hrs at 37° C., read-out: Inhibition zone size, Corynebacterium diphtheriae (ATCC 27010)", "value": 47, "unit": "mm"}, {"measurement": "zone of inhibition at 30 µg/disc", "setting": "[3]; Mycolicibacterium phlei, ATCC1298, 30 μg per disc (36 nmol per disc), 48 hrs at 37° C., read-out: Inhibition zone size, Mycobacterium phlei (ATCC 1298)", "value": 55, "unit": "mm"}, {"measurement": "zone of inhibition at 30 µg/disc", "setting": "[4]; Nocardia abscessus, BAA279, 30 μg per disc (36 nmol per disc), 48 hrs at 37° C., read-out: Inhibition zone size, Nocardia abscessus (BAA 279)", "value": 12, "unit": "mm"}, {"measurement": "zone of inhibition at 30 µg/disc", "setting": "[5]; Nocardia brasiliensis, ATCC19296, 30 μg per disc (36 nmol per disc), 48 hrs at 37° C., read-out: Inhibition zone size, Nocardia brasiliensis (ATCC 19296)", "value": 10, "unit": "mm"}]}]}
